The numbers were not newly measured in US12233205B2, “Thermal modulation of an inhalable medicament” (priority 2014, dated 2025), which cites them from elsewhere.

For the first data set the following is noted: administered IV.
As to `Nc1nc(NC2CC2)c2ncn([C@H]3C=C[C@@H](CO)C3)c2n1` [Abacavir], the bioavailability is given as 61-89%. For `Cc1nnc(SCC2=C(C(=O)O)N3C(=O)[C@@H](NC(=O)Cn4cnnn4)[C@H]3SC2)s1` [Cefazolin], the bioavailability entry is recorded as “around 78%”.

Consider `C[C@@H](O)[C@H]1C(=O)N2C(C(=O)O)=C(S[C@@H]3CN[C@H](C(=O)Nc4cccc(C(=O)O)c4)C3)[C@H](C)[C@H]12` [Ertapenem], for which the bioavailability result is given as “around 90%”. For the compound Gentamicin, the bioavailability result is on record as “around 100%”.

Still in this data set, the particulars now being: administered PO.
On to `Nc1nc(NC2CC2)c2ncn([C@H]3C=C[C@@H](CO)C3)c2n1` [Abacavir], for which the bioavailability entry is given as “around 83%”. For the compound `Nc1nc2c(ncn2COCCO)c(=O)[nH]1` [Acyclovir], the bioavailability is recorded as 10-20%. For the compound `NC12CC3CC(CC(C3)C1)C2` [Amantadine], the bioavailability entry is given as “around 86%”.

Turning to `CC(=O)Oc1ccccc1C(=O)O` [Aspirin], the bioavailability is 61-80%.

Regarding `CC[C@H]1OC(=O)[C@H](C)[C@@H](O[C@H]2C[C@@](C)(OC)[C@@H](O)[C@H](C)O2)[C@H](C)[C@@H](O[C@@H]2O[C@H](C)C[C@H](N(C)C)[C@H]2O)[C@](C)(O)C[C@@H](C)CN(C)[C@H](C)[C@@H](O)[C@]1(C)O` [Azithromycin], the bioavailability result is on record as “around 38%”. Turning to `[H]/N=C(\N/C(=N/[H])NCCCCCCNC(=N)NC(=N)Nc1ccc(Cl)cc1)Nc1ccc(Cl)cc1` [Chlorhexidine], the bioavailability result is on record as “around 4%”. As for `CC[C@H]1OC(=O)[C@H](C)[C@@H](O[C@H]2C[C@@](C)(OC)[C@@H](O)[C@H](C)O2)[C@H](C)[C@@H](O[C@@H]2O[C@H](C)C[C@H](N(C)C)[C@H]2O)[C@](C)(OC)C[C@@H](C)C(=O)[C@H](C)[C@@H](O)[C@]1(C)O` [Clarithromycin], the bioavailability entry is “around 55%”. For the compound `Nc1nc(O)c2ncn(COC(CO)CO)c2n1` [Ganciclovir], the bioavailability result is recorded as “around 5%”. Take `CC(C)Cc1ccc(C(C)C(=O)O)cc1` (stereo not shown) [Ibuprofen]: the bioavailability is 58-98%. For `NNC(=O)c1ccncc1` [Isoniazid], the bioavailability result was “around 90%”. As to `C[C@H]1COc2c(N3CCN(C)CC3)c(F)cc3c(=O)c(C(=O)O)cn1c23` [Levofloxacin], the bioavailability entry was “around 99%”.

As for `CN(C)c1ccc(O)c2c1C[C@H]1C[C@H]3[C@H](N(C)C)C(O)=C(C(N)=O)C(=O)[C@@]3(O)C(O)=C1C2=O` [Minocycline], the bioavailability entry is reported as “around 90%”.

As to `CCOc1ccc2ccccc2c1C(=O)N[C@@H]1C(=O)N2[C@@H]1SC(C)(C)[C@@H]2C(=O)O` [Nafcillin], the bioavailability result is “around 50%”. Consider `CN(C)C(=O)Oc1cccc([N+](C)(C)C)c1` [Neostigmine], for which the bioavailability was 1-2%. Regarding `Cc1ccnc2c1NC(=O)c1cccnc1N2C1CC1` [Nevirapine], the bioavailability was 80-94%. For `CCOC(=O)C1=C[C@@H](OC(CC)CC)[C@H](NC(C)=O)[C@@H](N)C1` [Oseltamivir], the bioavailability result was “around 75%”. Regarding `CNC[C@H](O)c1cccc(O)c1` [Phenylephrine], the bioavailability entry is “around 38%”. Consider `Cc1nnc(C(=O)NC(C)(C)c2nc(C(=O)NCc3ccc(F)cc3)c(O)c(=O)n2C)o1` [Raltegravir], for which the bioavailability is reported as 20-43%. With `NC(=O)c1ncn([C@@H]2O[C@H](CO)[C@@H](O)[C@H]2O)n1` [Ribavirin], the bioavailability result is “around 64%”.

`CO[C@H]1/C=C/O[C@@]2(C)Oc3c(C)c(O)c4c(O)c(c(/C=N/N5CCN(C)CC5)c(O)c4c3C2=O)NC(=O)/C(C)=C\C=C\[C@H](C)[C@H](O)[C@@H](C)[C@@H](O)[C@@H](C)[C@H](OC(C)=O)[C@@H]1C` [Rifampin]: the bioavailability is recorded as 90-95%. On to `COc1cccc(C2(O)CCCCC2CN(C)C)c1` (stereo not shown) [Tramadol], for which the bioavailability was 75-95%. For the compound `CN[C@H](CC(C)C)C(=O)N[C@H]1C(=O)N[C@@H](CC(N)=O)C(=O)N[C@H]2C(=O)N[C@H]3C(=O)N[C@H](C(=O)N[C@H](C(=O)O)c4cc(O)cc(O)c4-c4cc3ccc4O)[C@H](O)c3ccc(c(Cl)c3)Oc3cc2cc(c3O[C@@H]2O[C@H](CO)[C@@H](O)[C@H](O)[C@H]2O[C@H]2C[C@](C)(N)[C@H](O)[C@H](C)O2)Oc2ccc(cc2Cl)[C@H]1O` [Vancomycin], the bioavailability result is “negligible”. Turning to Gentamicin, the bioavailability result is “negligible”.

As to Penicillin G, V, the bioavailability is on record as 30-80%.

Staying with this data set, now noted: administered PR.
`CO[C@@]1(NC(=O)Cc2cccs2)C(=O)N2C(C(=O)O)=C(COC(N)=O)CS[C@@H]21` [Cefoxitin]: the bioavailability is on record as 7-17%.

The data set is the same for the next values; noted with them: administered as a nasal spray.
Turning to `CN1CCCC(n2nc(Cc3ccc(Cl)cc3)c3ccccc3c2=O)CC1` (stereo not shown) [Azelastine], the bioavailability result is “around 40%”. As for `CNS(=O)(=O)Cc1ccc2[nH]cc(CCN(C)C)c2c1` [Sumatriptan], the bioavailability result is recorded as “around 25%”.

Staying with this data set, now noted: administered as an inhalable.
Take `NC[C@H]1O[C@H](O[C@H]2[C@H](O)[C@@H](O[C@H]3O[C@H](CO)[C@@H](O)[C@H](N)[C@H]3O)[C@H](N)C[C@@H]2N)[C@H](N)C[C@@H]1O` [Tobramycin]: the bioavailability is 1-16.6%.

The same data set, now with this note: in vivo, im.
On to `CCOC(=O)C1(c2ccccc2)CCN(C)CC1` [Meperidine], for which the bioavailability result is on record as “around 57%”.

The data set is the same for the next values; noted with them: in vivo, inhaled or intranasal.
Consider `C[C@@H]1C[C@H]2[C@@H]3CCC4=CC(=O)C=C[C@]4(C)[C@@]3(Cl)[C@@H](O)C[C@]2(C)[C@@]1(O)C(=O)CCl` [Mometasone], for which the bioavailability entry is “around 1%”.

Staying with this data set, now noted: in vivo, po.
On to `CNCC[C@H](Oc1cccc2ccccc12)c1cccs1` [Duloxetine], for which the bioavailability is 30-80%. On to `Cc1ncc2n1-c1ccc(Cl)cc1C(c1ccccc1F)=NC2` [Midazolam], for which the bioavailability result is given as “around 36%”.

The same data set, now with this note: route not stated.
For the compound `CC(=O)N[C@H]1[C@H]([C@H](O)[C@H](O)CO)OC(C(=O)O)=C[C@@H]1N=C(N)N` [Zanamivir], the bioavailability was 4-17%.
